Test results as given in publication PMC9823088, “The oral selective estrogen receptor degrader GDC-0810 (ARN-810) in postmenopausal women with hormone receptor-positive HER2-negative (HR + /HER2 −) advanced/metastatic breast cancer” (Breast Cancer Research and Treatment, 2022).

Experiment: Safety: adverse events (NCI-CTCAE v4.0), DLT, MTD, RP2D
Format: in vivo
Description: AEs were assessed using the National Cancer Institute-Common Terminology Criteria for Adverse Events (NCI-CTCAE v4.0). […] The protocol-defined GDC-0810-specific AEs of special interest (AESI) which were non-serious adverse events that required expedited reporting to the sponsor, included DLTs occurring during the DLT assessment window, grade ≥ 2 vomiting/diarrhea, grade ≥ 3 nausea, grade ≥ 2 thromboembolic events, grade ≥ 2 vaginal or uterine hemorrhage, and grade ≥ 3 elevation of ALT or AST.
Analyses of safety, pharmacokinetics, anti-tumor activity, and data from the FES-PET imaging correlative studies were planned. Confirmatory inferential analyses and imputation for missing data were not planned due to the exploratory nature of this study. Descriptive statistics were used to summarize patient data. The number of patients to be enrolled was dependent upon the observed safety and pharmacokinetic profile during dose escalations. The safety- and efficacy-evaluable population included patients who received at least one dose of the study drug. Safety was assessed through summaries of DLTs, AEs, changes in select laboratory test results, vital signs, ECGs, and changes in endometrial thickness. Objective response (with confirmation) and clinical benefit rates (CBR) were derived per RECIST v1.1 and summarized by dose level and cohort. […]
polyps, endometrial cancer, endometrial hyperplasia, and other significant disorders); any […]
disease or chronic diarrhea, short bowel syndrome, or upper gastrointestinal surgery; known human immunodeficiency virus (HIV) infection; known clinically significant history of liver disease; major surgery within 4 weeks prior to enrollment; or radiation therapy within 2 weeks […]
There were phase-specific exclusion criteria as well. In phase Ib, cohort C1 excluded patients with a history of venous thromboembolic event requiring therapeutic anticoagulation or vaginal bleeding within 2 months prior to enrollment. In phase IIa, cohorts A1 and A2 excluded patients with >1 chemotherapy in the advanced/metastatic disease setting. In phase IIa, cohort B1 excluded patients with >1 prior AI in the advanced/metastatic disease setting or prior […]
In phase IIa, cohort B2 excluded patients with >1 prior AI or >1 prior chemotherapy in the advanced/metastatic disease setting.
Patients in phase Ia in dose escalation received oral doses of GDC-0810 during 28-day cycles given once daily (QD) or twice-daily (BID), with fasting and without fasting, and with a single dose given on day −7 leading into cycle 1. The starting dose in the first cohort was 100 mg per day based on preclinical studies. Dose escalation to 200 mg and by 200 mg increments in successive cohorts occurred in the absence of dose-limiting toxicities (DLTs), or conditionally in the presence of DLTs. A DLT was defined as any adverse event (AE) occurring during the DLT window deemed by the investigator or sponsor to be related to the study drug unless they were clearly related to disease progression or other cause; DLT incidences were evaluated from day […]
patients in a dose cohort experienced a DLT, 3 additional patients were assigned to that dose; dose escalation to the next level proceeded if DLTs were experienced by ≤1 patient out of 6. If ≥2 patients experienced DLTs at a given dose, a lower dose was to be declared the maximum […]
Phase Ib was a dose-escalation study of GDC-0810 starting at 400 mg QD, as […]
Phase IIa explored the recommended phase 2 dose (RP2D) from phase Ia. All patients received GDC-0810 600 mg under non-fasting conditions. Cohorts A1 and A2 enrolled patients with tumors harboring ESR1 mutations with no prior fulvestrant use in cohort A1 while prior fulvestrant use was allowed in cohort A2. Cohorts B1 and B2 enrolled patients whose disease had progressed and who may have had one or no AI therapy; there was no prior fulvestrant use in cohort B1 while prior fulvestrant use was allowed in cohort B2.
Patients in all three study phases continued treatment until unacceptable toxicity, disease

[1] = phase 1a (n=41), grade 3, cohort 200 mg
[2] = phase 1a (n=41), grade 3, cohort 300 mg, BID
[3] = phase 1a (n=41), grade 3, cohort 600 mg
[4] = phase 1a (n=41), grade 3, cohort 800 mg, non-fasting
[5] = phase 1a (n=41), grade 4, cohort 600 mg, non-fasting
[6] = phase 1a (n=41), grade 5, cohort 600 mg, non-fasting
[7] = phase IIa A1, 600 mg QD, n = 19
[8] = phase IIa A2, 600 mg QD, n = 10
[9] = phase IIa B1, 600 mg QD, n = 53
[10] = phase IIa B2, 600 mg QD, n = 19

CC/C(=C(/c1ccc(/C=C/C(=O)O)cc1)c1ccc2[nH]ncc2c1)c1ccc(F)cc1Cl [GDC-0810]
tolerability based on frequency of gastrointestinal AEs (800 mg daily): intolerable
patients who reported SAEs regardless of attribution (across all 3 phases): 33 patients
AST increased, Grades 3–5 (all 3 study phases, N = 152): 4 (3) n (%)
AST increased, all grades (all 3 study phases, N = 152): 26 (17) n (%)
Abdominal pain, Grades 3–5 (all 3 study phases, N = 152): 3 (2) n (%)
Abdominal pain, all grades (all 3 study phases, N = 152): 28 (18) n (%)
Anemia, Grades 3–5 (all 3 study phases, N = 152): 4 (3) n (%)
Anemia, all grades (all 3 study phases, N = 152): 34 (22) n (%)
Arthralgia, Grades 3–5 (all 3 study phases, N = 152): 0 n (%)
Arthralgia, all grades (all 3 study phases, N = 152): 32 (21) n (%)
Constipation, Grades 3–5 (all 3 study phases, N = 152): 1 (1) n (%)
Constipation, all grades (all 3 study phases, N = 152): 42 (28) n (%)
Cough, Grades 3–5 (all 3 study phases, N = 152): 1 (1) n (%)
Cough, all grades (all 3 study phases, N = 152): 30 (20) n (%)
Decreased appetite, Grades 3–5 (all 3 study phases, N = 152): 0 n (%)
Decreased appetite, all grades (all 3 study phases, N = 152): 38 (25) n (%)
Diarrhea, Grades 3–5 (all 3 study phases, N = 152): 7 (5) n (%)
Diarrhea, all grades (all 3 study phases, N = 152): 95 (63) n (%)
Dyspepsia, Grades 3–5 (all 3 study phases, N = 152): 1 (1) n (%)
Dyspepsia, all grades (all 3 study phases, N = 152): 30 (20) n (%)
Fatigue, Grades 3–5 (all 3 study phases, N = 152): 6 (4) n (%)
Fatigue, all grades (all 3 study phases, N = 152): 77 (51) n (%)
Flatulence, Grades 3–5 (all 3 study phases, N = 152): 0 n (%)
Flatulence, all grades (all 3 study phases, N = 152): 29 (19) n (%)
Nausea, Grades 3–5 (all 3 study phases, N = 152): 1 (1) n (%)
Nausea, all grades (all 3 study phases, N = 152): 82 (54) n (%)
Vomiting, Grades 3–5 (all 3 study phases, N = 152): 4 (3) n (%)
Vomiting, all grades (all 3 study phases, N = 152): 47 (31) n (%)
patients experiencing ≥ 1 AE regardless of causality (all who received the study drug): All patients
dose-limiting toxicity (DLT) (dose escalation, 35-day DLT window, diarrhea, 800-mg QD): one and a DLT
ER agonist effects on the lipid profiles of patients (in vivo): no clinically significant ER agonist effects
patients who reported SAEs regardless of attribution (phase 1a): 13 n
SAE Pneumothorax (phase 1a (n=41), grade 1, cohort 800 mg, non-fasting): 1 (2%) n (%)
SAE Presyncope (phase 1a (n=41), grade 2, cohort 300 mg, BID): 1 (2%) n (%)
SAE Urinary tract infection (phase 1a (n=41), grade 3, cohort 100 mg): 1 (2%) n (%)
SAE Abdominal pain [1]: 1 (2%) n (%)
SAE Nausea [1]: 1 (2%) n (%)
SAE Vomiting [1]: 1 (2%) n (%)
SAE Skin infection [2]: 1 (2%) n (%)
SAE Venous thrombosis [2]: 1 (2%) n (%)
SAE Anemia [3]: 1 (2%) n (%)
SAE Ascites [3]: 1 (2%) n (%)
SAE Adrenal insufficiency [4]: 1 (2%) n (%)
SAE Fatigue [4]: 1 (2%) n (%)
SAE Pulmonary embolism (phase 1a (n=41), grade 4, cohort 300 mg, BID, related to study drug): 1 (2%) n (%)
SAE Thrombocytopenia (phase 1a (n=41), grade 4, cohort 600 mg): 1 (2%) n (%)
SAE Cardiac arrest [5]: 1 (2%) n (%)
SAE Hyponatremia [5]: 1 (2%) n (%)
SAE Cardiac failure [6]: 1 (2%) n (%)
SAE Metastases to peritoneum [6]: 1 (2%) n (%)
SAE Blood bilirubin increased (phase 1a (n=41), grade 5, cohort 800 mg): 1 (2%) n (%)
patients who reported SAEs regardless of attribution (phase 1b): 3 n
patients who reported SAEs regardless of attribution (phase 2a): 17 n
deaths (phase IIa): 3 deaths
AST increased, Grades 3–5 [7]: 0 n (%)
AST increased, all grades [7]: 1 (5) n (%)
Abdominal pain, Grades 3–5 [7]: 1 (5) n (%)
Abdominal pain, all grades [7]: 3 (16) n (%)
Anemia, Grades 3–5 [7]: 0 n (%)
Anemia, all grades [7]: 2 (11) n (%)
Arthralgia, Grades 3–5 [7]: 0 n (%)
Arthralgia, all grades [7]: 4 (21) n (%)
Constipation, Grades 3–5 [7]: 0 n (%)
Constipation, all grades [7]: 2 (11) n (%)
Cough, Grades 3–5 [7]: 0 n (%)
Cough, all grades [7]: 2 (11) n (%)
Decreased appetite, Grades 3–5 [7]: 0 n (%)
Decreased appetite, all grades [7]: 6 (32) n (%)
Diarrhea, Grades 3–5 [7]: 0 n (%)
Diarrhea, all grades [7]: 10 (53) n (%)
Dyspepsia, Grades 3–5 [7]: 0 n (%)
Dyspepsia, all grades [7]: 6 (31) n (%)
Fatigue, Grades 3–5 [7]: 0 n (%)
Fatigue, all grades [7]: 8 (42) n (%)
Flatulence, Grades 3–5 [7]: 0 n (%)
Flatulence, all grades [7]: 4 (21) n (%)
Nausea, Grades 3–5 [7]: 0 n (%)
Nausea, all grades [7]: 8 (42) n (%)
Vomiting, Grades 3–5 [7]: 2 (11) n (%)
Vomiting, all grades [7]: 8 (42) n (%)
AST increased, Grades 3–5 [8]: 0 n (%)
AST increased, all grades [8]: 2 (20) n (%)
Abdominal pain, Grades 3–5 [8]: 0 n (%)
Abdominal pain, all grades [8]: 0 n (%)
Anemia, Grades 3–5 [8]: 1 (10) n (%)
Anemia, all grades [8]: 2 (20) n (%)
Arthralgia, Grades 3–5 [8]: 0 n (%)
Arthralgia, all grades [8]: 0 n (%)
Constipation, Grades 3–5 [8]: 0 n (%)
Constipation, all grades [8]: 0 n (%)
Cough, Grades 3–5 [8]: 0 n (%)
Cough, all grades [8]: 1 (10) n (%)
Decreased appetite, Grades 3–5 [8]: 0 n (%)
Decreased appetite, all grades [8]: 3 (30) n (%)
Diarrhea, Grades 3–5 [8]: 1 (10) n (%)
Diarrhea, all grades [8]: 5 (50) n (%)
Dyspepsia, Grades 3–5 [8]: 1 (10) n (%)
Dyspepsia, all grades [8]: 2 (20) n (%)
Fatigue, Grades 3–5 [8]: 0 n (%)
Fatigue, all grades [8]: 2 (20) n (%)
Flatulence, Grades 3–5 [8]: 0 n (%)
Flatulence, all grades [8]: 0 n (%)
Nausea, Grades 3–5 [8]: 0 n (%)
Nausea, all grades [8]: 6 (60) n (%)
Vomiting, Grades 3–5 [8]: 0 n (%)
Vomiting, all grades [8]: 4 (40) n (%)
AST increased, Grades 3–5 [9]: 2 (4) n (%)
AST increased, all grades [9]: 4 (8) n (%)
Abdominal pain, Grades 3–5 [9]: 1 (2) n (%)
Abdominal pain, all grades [9]: 10 (19) n (%)
Anemia, Grades 3–5 [9]: 1 (2) n (%)
Anemia, all grades [9]: 6 (11) n (%)
Arthralgia, Grades 3–5 [9]: 0 n (%)
Arthralgia, all grades [9]: 14 (26) n (%)
Constipation, Grades 3–5 [9]: 1 (2) n (%)
Constipation, all grades [9]: 16 (30) n (%)
Cough, Grades 3–5 [9]: 1 (2) n (%)
Cough, all grades [9]: 8 (15) n (%)
Decreased appetite, Grades 3–5 [9]: 0 n (%)
Decreased appetite, all grades [9]: 9 (17) n (%)
Diarrhea, Grades 3–5 [9]: 5 (9) n (%)
Diarrhea, all grades [9]: 29 (55) n (%)
Dyspepsia, Grades 3–5 [9]: 0 n (%)
Dyspepsia, all grades [9]: 6 (11) n (%)
Fatigue, Grades 3–5 [9]: 2 (4) n (%)
Fatigue, all grades [9]: 27 (51) n (%)
Flatulence, Grades 3–5 [9]: 0 n (%)
Flatulence, all grades [9]: 13 (25) n (%)
Nausea, Grades 3–5 [9]: 0 n (%)
Nausea, all grades [9]: 24 (45) n (%)
Vomiting, Grades 3–5 [9]: 1 (2) n (%)
Vomiting, all grades [9]: 14 (26) n (%)
AST increased, Grades 3–5 [10]: 0 n (%)
AST increased, all grades [10]: 1 (5) n (%)
Abdominal pain, Grades 3–5 [10]: 0 n (%)
Abdominal pain, all grades [10]: 1 (5) n (%)
Anemia, Grades 3–5 [10]: 1 (5) n (%)
Anemia, all grades [10]: 4 (21) n (%)
Arthralgia, Grades 3–5 [10]: 0 n (%)
Arthralgia, all grades [10]: 0 n (%)
